Each compound was assayed against T1, mPDE10A7 (Mus musculus, UniProt Q8CA95) (assay: mPDE10A7 enzyme inhibition (IMAP fluorescence polarization)). Conditions: Table 3; fluorescein labeled cAMP or cGMP substrate.
T1 sequence (Q8CA95 446-763 limits assumed): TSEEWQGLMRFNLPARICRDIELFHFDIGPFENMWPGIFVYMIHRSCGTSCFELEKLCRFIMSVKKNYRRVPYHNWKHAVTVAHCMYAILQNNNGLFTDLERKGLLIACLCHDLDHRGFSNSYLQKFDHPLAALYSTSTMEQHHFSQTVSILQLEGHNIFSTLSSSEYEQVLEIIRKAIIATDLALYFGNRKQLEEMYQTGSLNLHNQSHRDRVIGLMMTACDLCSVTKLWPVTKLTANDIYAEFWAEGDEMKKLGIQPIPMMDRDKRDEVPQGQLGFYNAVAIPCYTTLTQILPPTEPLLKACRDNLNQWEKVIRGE
Assay type: biochemical
Protocol: Enzyme Activity: To analyze the enzyme activity, 5 μL of serial diluted mPDE10A7 containing lysate were incubated with equal volumes of diluted (100-fold) fluorescein labeled cAMP or cGMP for 30 minutes in MDC HE 96-well assay plates at room temperature. Both the enzyme and the substrates were diluted in the following assay buffer: Tris/HCl (pH 8.0) 50 mM, MgCl2 5 mM, 2-mercaptoethanol 4 mM, BSA 0.33 mg/mL. After incubation, the reaction was stopped by adding 20 μL of diluted (400-fold) binding reagents and was incubated for an hour at room temperature. The plates were counted in an Analyst GT (Molecular Devices) for fluorescence polarization. An IMAP Assay kit (Molecular Device) was used to assess enzyme properties of mPDE10A7. Data were analyzed with SoftMax Pro.
Enzyme Inhibition: To check the inhibition profile, 10 μL of serial diluted compounds were incubated with 30 μl of diluted PDE enzymes in a 96-well polystyrene assay plate for 30 minutes at room temperature. After incubation, 5 μL of the compound-enzyme mixture were aliquoted into a MDC HE black plate, mixed with 5 μl of 100-fold diluted fluorescein labeled substrates (cAMP or cGMP), and incubated for 30 minutes at room temperature. The reaction was stopped by adding 20 μL of diluted binding reagents and counted in an Analyst GT for fluorescence polarization. The data were analyzed with SoftMax Pro.

IC50 [nM]	Structure (SMILES)
190	COc1cc2nncc(N3CCCC(c4nc(C)no4)C3)c2cc1OC (stereo not shown) [Cpd 56]
44	CCN(C)c1cccc2c1cnn2-c1cnnc2cc(OC)c(OC)cc12 [Cpd 72]
140	COCCOc1ccc2cnn(-c3cnnc4cc(OC)c(OC)cc34)c2c1 [Cpd 19, 6,7-Dimethoxy-4-[6-(2-methoxyethoxy)-1H-indazol-1-yl]cinnoline]
554	COc1cc2nncc(-n3ncc4ccc(N5CCOCC5)cc43)c2cc1OC [Cpd 21, 6,7-dimethoxy-4-(6-morpholin-4-yl-1H-indazol-1-yl)cinnoline]
23	COc1cc2nncc(-c3ccc4c(c3)OCCN4C)c2cc1OC [Cpd 8, 7-(6,7-dimethoxycinnolin-4-yl)-4-methyl-3,4-dihydro-2H-1,4-benzoxazine]
57.8	COc1cc2nncc(N3CCOC(c4ccc(C)cc4F)C3)c2cc1OC (racemic) [Cpd 88]
28.8	CCN1CCN(c2cccc3c2cnn3-c2cnnc3cc(OC)c(OC)cc23)CC1 [Cpd 48]
96.1	COc1cc2nncc(-n3ncc4c(N5CCCC5)cccc43)c2cc1OC [Cpd 73, 6,7-dimethoxy-4-(4-pyrrolidin-1-yl-1H-indazol-1-yl)cinnoline]
160	COc1cc2nncc(N3CCNC(c4cc(OCc5ccccc5)cc(OCc5ccccc5)c4)C3)c2cc1OC (racemic) [Cpd 118]
18.7	COc1cc2nncc(-c3ccc4c(c3)N(C)C(=O)C4(C)C)c2cc1OC [Cpd 76]
3.84	COc1cc2nncc(N3CCOC(c4ccc(O)cc4)C3)c2cc1OC (racemic) [Cpd 74]
63.1	COc1cc2nncc(-n3ncc4c(N5CCN(CC6CC6)CC5)cccc43)c2cc1OC [Cpd 50, 4-{4-[4-(cyclopropylmethyl)piperazin-1-yl]-1H-indazol-1-yl}-6,7-dimethoxycinnoline]
46.1	COc1ccc(C2CN(c3cnnc4cc(OC)c(OC)cc34)CC(=O)N2C)cc1 (racemic) [Cpd 65]
3.57	CC[C@@H]1CN(c2cnnc3cc(OC)c(OC)cc23)C[C@@H](c2ccc(OC)cc2)O1 (racemic) [Cpd 100]
7.84	COc1cc2nncc(N3CCNC(c4cccs4)C3)c2cc1OC (racemic) [Cpd 93]
218	COc1cc2nncc(-c3nc4ccccc4o3)c2cc1OC [Cpd 1, 4-(1,3-benzoxazol-2-yl)-6,7-dimethoxycinnoline hydroformate]
1390	COc1ccc(CNC2CCN(c3cnnc4cc(OC)c(OC)cc34)CC2)cc1 [Cpd 78, 1-(6,7-dimethoxycinnolin-4-yl)-N-(4-methoxybenzyl)piperidin-4-amine]
152	COc1cc2nncc(-n3ncc4c(Br)cccc43)c2cc1OC [Cpd 113, 4-(4-bromo-1H-indazol-1-yl)-6,7-dimethoxycinnoline]
10.3	COc1ccc2cc([C@@H]3CN(c4cnnc5cc(OC)c(OC)cc45)CCN3)ccc2c1 [Cpd 111]
35.1	COc1cc2nncc(N3CCCC(NC(=O)c4ccccc4F)C3)c2cc1OC (racemic) [Cpd 102]
286	COc1cc2nncc(N3CCC(N4CCCC4=O)CC3)c2cc1OC [Cpd 85]
310	COc1cccc(C2CN(c3cnnc4cc(OC)c(OC)cc34)C(=O)CO2)c1 (racemic) [Cpd 52, 4-(6,7-dimethoxycinnolin-4-yl)-6-(3-methoxyphenyl)morpholin-3-one]
427	COc1cc2nncc(N3CC(c4ccc(Cl)cc4)OCC3=O)c2cc1OC (racemic) [Cpd 40]

The remaining lines, values behind:

Structure (SMILES)	IC50 [nM]
COc1cc2nncc(N3CCO[C@@H](c4ccc(C)cc4F)C3)c2cc1OC [Cpd 110]	2.86
COc1ccc(N2CCC=C(c3cnnc4cc(OC)c(OC)cc34)C2)cc1 [Cpd 101]	6.51
COc1cc2nncc(N3CCCC(C(=O)N4CCCCC4)C3)c2cc1OC (racemic) [Cpd 39]	378
COc1ccc(CC2CCN(c3cnnc4cc(OC)c(OC)cc34)C2)cc1 (racemic) [Cpd 98]	26.6
COc1cc2nncc(N3CCCC(C(=O)N4CCCC4)C3)c2cc1OC (racemic) [Cpd 32, 6,7-Dimethoxy-4-[3-(pyrrolidin-1-ylcarbonyl)piperidin-1-yl]cinnoline]	402
COc1cc2nncc(N3CCC(c4ccccc4)C3)c2cc1OC (racemic) [Cpd 12, 6,7-dimethoxy-4-(3-phenylpyrrolidin-1-yl)cinnoline]	261
COc1cc2nncc(-n3nc(C(=O)NC4CC4)c4ccccc43)c2cc1OC [Cpd 3, N-cyclopropyl-1-(6,7-dimethoxycinnolin-4-yl)-1H-indazole-3-carboxamide hydroformate]	141
COc1cc(OC)cc(C(=O)NC2CCCN(c3cnnc4cc(OC)c(OC)cc34)C2)c1 (racemic) [Cpd 121]	16.3
COc1cc2nncc(N3CCOC(c4ccccc4C)C3)c2cc1OC (racemic) [Cpd 96]	14.1
COc1cc2nncc(N3CCNC(c4ccc(N(C)C)cc4)C3)c2cc1OC (racemic) [Cpd 94]	1.6
COc1cc2nncc(N3CCCC(N(C)C(=O)c4ccccc4)C3)c2cc1OC (stereo not shown) [Cpd 107]	58.4
COc1cc2nncc(N3CCNC(c4cccc5ccccc45)C3)c2cc1OC (racemic) [Cpd 103]	12
COc1ccc(C2(O)CCCN(c3cnnc4cc(OC)c(OC)cc34)C2)cc1 (stereo not shown) [Cpd 64]	19.2
COc1cc2nncc(N3CCCC(n4ccccc4=O)C3)c2cc1OC (stereo not shown) [Cpd 51]	152
COc1cc2nncc(N3CCC[C@@H](c4ccccc4F)C3)c2cc1OC [Cpd 67]	7.01
COc1cc2nncc(-n3ncc4c(N5CCN(C(C)=O)CC5)cccc43)c2cc1OC [Cpd 106]	16
COc1cc2nncc(N3CCCC(Oc4ccccc4)C3)c2cc1OC (racemic) [Cpd 37]	113
COc1cc2nncc(N3CCCC(C4CCCCC4)C3)c2cc1OC (racemic) [Cpd 104]	263
COc1cc2nncc(N3CCCC(CN4CCCC4=O)C3)c2cc1OC (racemic) [Cpd 62, 1-{[1-(6,7-dimethoxycinnolin-4-yl)piperidin-3-yl]methyl}pyrrolidin-2-one]	337
COc1cc2nncc(N3CCOC(c4ccc5c(c4)CCO5)C3)c2cc1OC (racemic) [Cpd 38]	6.49
COc1ccc2cc(C3CN(c4cnnc5cc(OC)c(OC)cc45)CCN3)ccc2c1 (racemic) [Cpd 86]	1.33
COc1cc2nncc(N3CCOC(c4ccc(OC(F)(F)F)cc4)C3)c2cc1OC (racemic) [Cpd 63]	29.2

Same assay, conditions: Table 4; fluorescein labeled cAMP or cGMP substrate

IC50 [nM]	Structure (SMILES)
145	COc1ccc(C2CN(c3cnnc4cc(O)c(OC)cc34)CCO2)cc1 (racemic) [compound 127]

— US20070265270A1, “Cinnoline derivatives as phosphodiesterase 10 inhibitors” (priority 2006, published 2007)
